Holding throughout (assay): biochemical
Common to all, as to format: biochemical

Assay [1] deals with T1, 382 unique human kinases (Homo sapiens, UniProt O94804).
T1 construct: purchased Reaction Biology (HotSpot contract assay)
Conditions: LOK/STK10, 10 uM; for remaining activity at 10 µM: read-out: % Enzyme Activity (relative to DMSO controls).

The target of assay [2] is T2, 382 unique human kinases (Homo sapiens, UniProt P07949, Y806H).
T2 construct: purchased Reaction Biology (HotSpot contract assay)
T2 sequence (P07949 29-1114 Y806H): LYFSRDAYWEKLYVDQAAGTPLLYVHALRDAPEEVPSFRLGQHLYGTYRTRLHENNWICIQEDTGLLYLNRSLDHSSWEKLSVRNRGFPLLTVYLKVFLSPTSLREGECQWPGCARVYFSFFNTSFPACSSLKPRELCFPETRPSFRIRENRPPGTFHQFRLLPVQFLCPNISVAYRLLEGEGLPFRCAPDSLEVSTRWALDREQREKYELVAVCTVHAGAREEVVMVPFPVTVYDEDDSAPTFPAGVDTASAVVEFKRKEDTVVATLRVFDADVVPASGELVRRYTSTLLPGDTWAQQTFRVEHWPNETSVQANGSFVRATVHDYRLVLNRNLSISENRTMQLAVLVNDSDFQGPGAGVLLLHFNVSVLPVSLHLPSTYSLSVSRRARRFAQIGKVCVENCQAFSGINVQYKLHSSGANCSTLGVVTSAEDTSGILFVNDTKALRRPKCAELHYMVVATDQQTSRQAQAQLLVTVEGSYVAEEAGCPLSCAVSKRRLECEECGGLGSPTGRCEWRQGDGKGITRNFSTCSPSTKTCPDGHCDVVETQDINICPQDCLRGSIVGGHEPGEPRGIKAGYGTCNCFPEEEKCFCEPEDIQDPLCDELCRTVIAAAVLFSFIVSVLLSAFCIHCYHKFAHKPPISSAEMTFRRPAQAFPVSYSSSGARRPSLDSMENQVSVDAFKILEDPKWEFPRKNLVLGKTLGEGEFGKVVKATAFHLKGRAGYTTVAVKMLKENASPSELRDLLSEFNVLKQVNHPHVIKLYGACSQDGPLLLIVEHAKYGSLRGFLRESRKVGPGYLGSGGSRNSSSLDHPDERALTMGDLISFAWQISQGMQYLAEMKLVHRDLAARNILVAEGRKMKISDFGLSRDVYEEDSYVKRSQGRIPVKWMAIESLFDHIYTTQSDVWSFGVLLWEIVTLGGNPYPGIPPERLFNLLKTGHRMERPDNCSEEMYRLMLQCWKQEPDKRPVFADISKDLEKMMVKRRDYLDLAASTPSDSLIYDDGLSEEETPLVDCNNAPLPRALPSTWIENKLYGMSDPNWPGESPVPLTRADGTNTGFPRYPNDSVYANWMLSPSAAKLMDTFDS
Conditions: RET (Y806H), 10 uM; for remaining activity at 10 µM: read-out: % Enzyme Activity (relative to DMSO controls).

Assay [3] concerns the target T3, 382 unique human kinases (Homo sapiens, UniProt Q8TDX7).
T3 construct: purchased Reaction Biology (HotSpot contract assay)
Conditions: NEK7, compound at 10 uM, duplicate values; for remaining activity at 10 µM: read-out: % Enzyme Activity (relative to DMSO controls).

For assay [4], the target named is T4, 382 unique human kinases (Homo sapiens, UniProt P10721, V559D/V654A).
T4 construct: purchased Reaction Biology (HotSpot contract assay)
T4 sequence (P10721 26-976 V559D/V654A): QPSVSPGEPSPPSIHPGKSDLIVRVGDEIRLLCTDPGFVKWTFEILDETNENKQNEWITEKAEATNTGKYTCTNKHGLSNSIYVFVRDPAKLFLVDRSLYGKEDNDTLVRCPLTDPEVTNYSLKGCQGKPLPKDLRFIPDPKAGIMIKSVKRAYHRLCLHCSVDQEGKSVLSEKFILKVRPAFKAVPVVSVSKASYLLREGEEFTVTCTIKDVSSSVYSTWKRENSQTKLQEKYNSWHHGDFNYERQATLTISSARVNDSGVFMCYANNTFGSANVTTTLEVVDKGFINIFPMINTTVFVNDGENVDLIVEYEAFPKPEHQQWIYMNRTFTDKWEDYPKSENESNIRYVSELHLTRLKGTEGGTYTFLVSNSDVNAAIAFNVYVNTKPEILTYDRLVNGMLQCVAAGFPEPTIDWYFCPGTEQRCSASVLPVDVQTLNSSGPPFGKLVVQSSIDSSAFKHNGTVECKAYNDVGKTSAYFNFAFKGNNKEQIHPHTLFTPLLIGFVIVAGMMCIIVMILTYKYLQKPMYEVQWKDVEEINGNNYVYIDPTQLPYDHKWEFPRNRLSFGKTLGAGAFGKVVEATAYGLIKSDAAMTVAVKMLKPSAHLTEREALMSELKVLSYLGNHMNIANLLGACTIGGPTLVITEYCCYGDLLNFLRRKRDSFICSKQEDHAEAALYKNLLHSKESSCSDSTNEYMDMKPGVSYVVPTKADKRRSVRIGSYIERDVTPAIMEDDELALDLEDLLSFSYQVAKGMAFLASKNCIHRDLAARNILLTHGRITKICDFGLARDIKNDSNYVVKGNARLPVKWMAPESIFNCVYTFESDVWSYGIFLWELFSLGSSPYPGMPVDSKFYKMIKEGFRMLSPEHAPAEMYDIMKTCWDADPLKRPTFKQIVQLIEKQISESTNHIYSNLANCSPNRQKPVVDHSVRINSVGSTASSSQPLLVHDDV
Conditions: c-Kit (V559D/V654A), 10 uM; for remaining activity at 10 µM: read-out: % Enzyme Activity (relative to DMSO controls).

Assay [5] has as its target T5, 382 unique human kinases (Homo sapiens, UniProt P36888).
T5 construct: purchased Reaction Biology (HotSpot contract assay)
T5 sequence (P36888 27-993): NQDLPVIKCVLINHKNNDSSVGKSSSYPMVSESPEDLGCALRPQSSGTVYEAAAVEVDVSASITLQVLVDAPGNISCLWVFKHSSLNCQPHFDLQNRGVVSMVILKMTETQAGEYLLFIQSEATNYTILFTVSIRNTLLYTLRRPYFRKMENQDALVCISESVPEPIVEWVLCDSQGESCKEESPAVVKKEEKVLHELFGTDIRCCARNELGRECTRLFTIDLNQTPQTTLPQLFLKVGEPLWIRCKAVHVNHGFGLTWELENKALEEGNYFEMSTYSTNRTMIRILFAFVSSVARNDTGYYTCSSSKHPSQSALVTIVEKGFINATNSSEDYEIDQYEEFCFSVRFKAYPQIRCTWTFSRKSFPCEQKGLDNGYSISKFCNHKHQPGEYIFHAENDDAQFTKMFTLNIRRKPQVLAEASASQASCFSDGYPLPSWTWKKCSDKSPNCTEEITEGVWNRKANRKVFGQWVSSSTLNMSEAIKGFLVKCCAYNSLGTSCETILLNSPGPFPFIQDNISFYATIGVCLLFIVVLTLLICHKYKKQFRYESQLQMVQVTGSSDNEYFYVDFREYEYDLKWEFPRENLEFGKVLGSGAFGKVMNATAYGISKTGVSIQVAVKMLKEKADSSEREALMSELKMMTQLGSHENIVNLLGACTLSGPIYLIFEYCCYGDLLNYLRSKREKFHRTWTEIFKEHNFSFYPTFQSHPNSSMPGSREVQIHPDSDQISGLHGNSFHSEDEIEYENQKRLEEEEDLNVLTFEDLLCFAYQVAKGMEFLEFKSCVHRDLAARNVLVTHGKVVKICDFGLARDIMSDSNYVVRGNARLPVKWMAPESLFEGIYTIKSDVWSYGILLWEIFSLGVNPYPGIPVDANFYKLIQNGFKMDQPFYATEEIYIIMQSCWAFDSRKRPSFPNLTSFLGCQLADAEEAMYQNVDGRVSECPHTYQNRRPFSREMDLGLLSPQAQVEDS
Conditions: FLT3, [ATP] 50 µM, compound 10 uM; for remaining activity at 10 µM: read-out: % Enzyme Activity (relative to DMSO controls).

Assay [6] has as its target T6, 382 unique human kinases (Homo sapiens, UniProt Q08881).
T6 construct: purchased Reaction Biology (HotSpot contract assay)
T6 sequence (Q08881 1-620): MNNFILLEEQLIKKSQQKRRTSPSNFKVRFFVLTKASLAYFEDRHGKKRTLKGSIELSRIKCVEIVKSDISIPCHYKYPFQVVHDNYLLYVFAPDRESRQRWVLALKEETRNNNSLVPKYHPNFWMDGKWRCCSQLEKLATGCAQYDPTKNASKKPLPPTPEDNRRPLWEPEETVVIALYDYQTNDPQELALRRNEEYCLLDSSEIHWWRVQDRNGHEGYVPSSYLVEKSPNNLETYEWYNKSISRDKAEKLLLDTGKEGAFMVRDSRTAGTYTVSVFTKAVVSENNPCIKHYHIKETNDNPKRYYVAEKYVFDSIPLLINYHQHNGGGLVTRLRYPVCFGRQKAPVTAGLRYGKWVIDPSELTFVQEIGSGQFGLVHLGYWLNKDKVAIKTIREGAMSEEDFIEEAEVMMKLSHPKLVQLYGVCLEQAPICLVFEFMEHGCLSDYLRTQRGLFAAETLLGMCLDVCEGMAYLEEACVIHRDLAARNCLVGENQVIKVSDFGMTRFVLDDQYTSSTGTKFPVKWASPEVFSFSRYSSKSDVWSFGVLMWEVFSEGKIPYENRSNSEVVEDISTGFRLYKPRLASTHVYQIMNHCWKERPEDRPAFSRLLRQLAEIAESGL
Conditions: ITK, 10 uM; for remaining activity at 10 µM: read-out: % Enzyme Activity (relative to DMSO controls).

Assay [7] deals with T7, 382 unique human kinases (Homo sapiens, UniProt Q9H4B4).
T7 construct: purchased Reaction Biology (HotSpot contract assay)
T7 sequence (Q9H4B4 whole entry): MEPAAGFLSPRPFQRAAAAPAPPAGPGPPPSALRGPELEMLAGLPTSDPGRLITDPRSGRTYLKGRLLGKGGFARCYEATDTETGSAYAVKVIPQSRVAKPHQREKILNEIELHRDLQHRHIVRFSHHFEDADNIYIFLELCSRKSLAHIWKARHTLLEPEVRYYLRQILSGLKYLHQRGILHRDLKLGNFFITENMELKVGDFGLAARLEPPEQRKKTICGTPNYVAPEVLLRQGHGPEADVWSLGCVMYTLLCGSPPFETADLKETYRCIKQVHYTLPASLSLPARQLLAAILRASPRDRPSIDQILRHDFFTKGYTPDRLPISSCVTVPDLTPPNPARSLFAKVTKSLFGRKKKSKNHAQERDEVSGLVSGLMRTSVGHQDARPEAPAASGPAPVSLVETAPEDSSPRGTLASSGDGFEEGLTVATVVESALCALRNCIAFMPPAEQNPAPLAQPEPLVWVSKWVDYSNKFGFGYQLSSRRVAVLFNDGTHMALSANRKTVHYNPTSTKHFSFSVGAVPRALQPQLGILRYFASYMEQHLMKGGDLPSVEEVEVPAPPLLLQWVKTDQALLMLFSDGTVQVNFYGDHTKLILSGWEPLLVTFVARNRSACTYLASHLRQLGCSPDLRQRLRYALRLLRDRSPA
Conditions: PLK3, [ATP] 100 µM, compound 10 uM; for remaining activity at 10 µM: read-out: % Enzyme Activity (relative to DMSO controls).

The target of assay [8] is T8, 382 unique human kinases (Homo sapiens, UniProt Q9UQB9).
T8 construct: purchased Reaction Biology (HotSpot contract assay)
T8 sequence (Q9UQB9 1-309): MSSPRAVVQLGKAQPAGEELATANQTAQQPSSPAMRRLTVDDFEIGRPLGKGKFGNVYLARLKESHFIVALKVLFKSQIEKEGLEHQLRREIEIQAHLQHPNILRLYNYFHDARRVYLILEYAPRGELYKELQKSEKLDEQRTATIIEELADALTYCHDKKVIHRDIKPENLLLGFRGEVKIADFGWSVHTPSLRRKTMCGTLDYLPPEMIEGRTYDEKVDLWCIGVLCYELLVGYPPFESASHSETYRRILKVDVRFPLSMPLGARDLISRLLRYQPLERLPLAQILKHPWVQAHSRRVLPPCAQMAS
Conditions: Aurora C, 10 uM; for remaining activity at 10 µM: read-out: % Enzyme Activity (relative to DMSO controls).

Structures are written as SMILES.

T3 sequence (Q8TDX7 whole entry): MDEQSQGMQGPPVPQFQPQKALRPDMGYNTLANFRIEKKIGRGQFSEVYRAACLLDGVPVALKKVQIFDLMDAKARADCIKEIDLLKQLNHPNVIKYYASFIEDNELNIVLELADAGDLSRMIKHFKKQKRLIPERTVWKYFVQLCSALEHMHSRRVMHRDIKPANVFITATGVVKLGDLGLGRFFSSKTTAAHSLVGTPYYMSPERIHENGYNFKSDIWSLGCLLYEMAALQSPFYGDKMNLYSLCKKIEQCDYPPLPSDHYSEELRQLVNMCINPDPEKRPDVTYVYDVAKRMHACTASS
T1 sequence (O94804 whole entry): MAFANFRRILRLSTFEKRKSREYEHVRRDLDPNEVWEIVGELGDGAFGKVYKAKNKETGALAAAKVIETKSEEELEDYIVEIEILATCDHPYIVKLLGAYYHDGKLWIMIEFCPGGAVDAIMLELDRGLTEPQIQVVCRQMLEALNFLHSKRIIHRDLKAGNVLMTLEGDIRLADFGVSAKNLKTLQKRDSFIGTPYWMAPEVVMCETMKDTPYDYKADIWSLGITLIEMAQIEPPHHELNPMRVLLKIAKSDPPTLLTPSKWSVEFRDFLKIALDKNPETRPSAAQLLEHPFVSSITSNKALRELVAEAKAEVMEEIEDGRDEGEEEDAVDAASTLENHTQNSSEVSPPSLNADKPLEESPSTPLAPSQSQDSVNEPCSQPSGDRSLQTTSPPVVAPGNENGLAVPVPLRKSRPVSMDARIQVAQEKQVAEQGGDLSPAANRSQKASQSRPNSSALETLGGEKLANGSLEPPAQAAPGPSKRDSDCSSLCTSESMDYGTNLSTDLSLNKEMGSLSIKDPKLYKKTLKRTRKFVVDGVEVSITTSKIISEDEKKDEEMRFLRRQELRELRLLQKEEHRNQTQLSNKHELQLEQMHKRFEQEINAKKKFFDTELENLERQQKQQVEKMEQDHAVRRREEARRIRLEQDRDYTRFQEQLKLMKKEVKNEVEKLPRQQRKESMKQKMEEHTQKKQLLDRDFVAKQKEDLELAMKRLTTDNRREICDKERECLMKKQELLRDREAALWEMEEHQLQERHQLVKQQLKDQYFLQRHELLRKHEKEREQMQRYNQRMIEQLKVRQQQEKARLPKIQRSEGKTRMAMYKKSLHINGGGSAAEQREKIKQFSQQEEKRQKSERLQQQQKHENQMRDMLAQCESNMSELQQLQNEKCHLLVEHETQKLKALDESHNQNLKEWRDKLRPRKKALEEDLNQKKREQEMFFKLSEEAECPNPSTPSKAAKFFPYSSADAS

On to `CC(C)c1cc(-c2n[nH]c(=O)n2-c2ccc3c(ccn3C)c2)c(O)cc1O` [Ganetespib (STA9090)], for which the remaining activity at 10 µM on 382 unique human kinases [1] was 77%; at 382 unique human kinases [2], 78.2%; at 382 unique human kinases [3], 113%.
With `CC(C)c1cc(-c2n[nH]c(=O)n2-c2ccc3c(ccn3C)c2)c(O)cc1O` [Ganetespib], the remaining activity at 10 µM on 382 unique human kinases [4] worked out at 91.1%; at 382 unique human kinases [5], 30.4%; on 382 unique human kinases [6], 95.6%; on 382 unique human kinases [7], 39.6%; at 382 unique human kinases [8], 92.9%.
In the case of `CCNC(=O)c1noc(-c2cc(C(C)C)c(O)cc2O)c1-c1ccc(CN2CCOCC2)cc1` [Luminespib (AUY-922)], the “% Enzyme Activity (relative to DMSO controls)” value on 382 unique human kinases [1] came to 85.80%; on 382 unique human kinases [2] it was 88.98%; at 382 unique human kinases [3] it was 116.20%. Moreover, the remaining activity at 10 µM is 86.5% at 382 unique human kinases [1], 89.6% at 382 unique human kinases [2] and 116% at 382 unique human kinases [3].
`CCNC(=O)c1noc(-c2cc(C(C)C)c(O)cc2O)c1-c1ccc(CN2CCOCC2)cc1` [Luminespib]: the “% Enzyme Activity (relative to DMSO controls)” value was 102.17% at 382 unique human kinases [4]; 80.03% at 382 unique human kinases [5]; 92.96% at 382 unique human kinases [6]; 99.40% at 382 unique human kinases [7]; 94.32% on 382 unique human kinases [8]. The remaining activity at 10 µM worked out at 103% on 382 unique human kinases [4]; 80.1% at 382 unique human kinases [5]; 94.1% on 382 unique human kinases [6]; 99.4% on 382 unique human kinases [7]; 96% at 382 unique human kinases [8].

The values are drawn from PMC8550792, “Evolution of kinase polypharmacology across HSP90 drug discovery” (Cell Chemical Biology, 2021).
